Test results published in ChEMBL document CHEMBL4507301 (2021).

Assays:
[1] = target: Serine/threonine-protein kinase 33 (Homo sapiens) (UniProt Q9BYT3); conditions: Compound concentration 1000.0 nM
[2] = target: D(3) dopamine receptor (Homo sapiens) (UniProt P35462); conditions: Compound concentration 10.0 uM
[3] = target: Casein kinase II subunit alpha (Homo sapiens) (UniProt P68400); conditions: Compound concentration 1000.0 nM
[4] = target: 5-hydroxytryptamine receptor 1B (Homo sapiens) (UniProt P28222); conditions: Compound concentration 10.0 uM
[5] = target: MAP kinase-interacting serine/threonine-protein kinase 1 (Homo sapiens) (UniProt Q9BUB5); conditions: Compound concentration 1000.0 nM
[6] = target: Mitogen-activated protein kinase 11 (Homo sapiens) (UniProt Q15759); conditions: Compound concentration 1000.0 nM
[7] = target: Tyrosine-protein kinase FRK (Homo sapiens) (UniProt P42685); conditions: Compound concentration 1000.0 nM
[8] = target: Cyclin-dependent kinase 11A (Homo sapiens) (UniProt Q9UQ88); conditions: Compound concentration 1000.0 nM
[9] = target: Serine/threonine-protein kinase Nek9 (Homo sapiens) (UniProt Q8TD19); conditions: Compound concentration 1000.0 nM
[10] = target: SRSF protein kinase 3 (Homo sapiens) (UniProt Q9UPE1); conditions: Compound concentration 1000.0 nM
[11] = target: Fibroblast growth factor receptor 4 (Homo sapiens) (UniProt P22455); conditions: Compound concentration 1000.0 nM
[12] = target: Protein kinase C eta type (Homo sapiens) (UniProt P24723); conditions: Compound concentration 1000.0 nM
[13] = target: RAC-alpha serine/threonine-protein kinase (Homo sapiens) (UniProt P31749); conditions: Compound concentration 1000.0 nM
[14] = target: Aurora kinase B (Homo sapiens) (UniProt Q96GD4); conditions: Compound concentration 1000.0 nM
[15] = target: Serine/threonine-protein kinase haspin (Homo sapiens) (UniProt Q8TF76); conditions: Compound concentration 1000.0 nM
[16] = target: T1, Alpha-2C adrenergic receptor (Homo sapiens) (UniProt P18825); conditions: Compound concentration 10.0 uM
T1 sequence (whole entry): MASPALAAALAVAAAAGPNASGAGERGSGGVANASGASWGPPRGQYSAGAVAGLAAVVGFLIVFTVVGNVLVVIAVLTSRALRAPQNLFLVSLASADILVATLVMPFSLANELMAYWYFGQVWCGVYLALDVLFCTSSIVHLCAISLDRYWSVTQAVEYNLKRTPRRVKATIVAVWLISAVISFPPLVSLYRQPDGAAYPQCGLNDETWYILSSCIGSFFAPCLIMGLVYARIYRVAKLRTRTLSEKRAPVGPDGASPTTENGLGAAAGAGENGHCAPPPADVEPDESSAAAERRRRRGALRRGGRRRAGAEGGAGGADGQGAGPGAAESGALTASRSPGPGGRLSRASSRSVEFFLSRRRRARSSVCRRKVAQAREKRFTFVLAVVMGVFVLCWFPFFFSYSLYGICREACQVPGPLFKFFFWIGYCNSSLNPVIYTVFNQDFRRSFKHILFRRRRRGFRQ

[17] = target: Tyrosine-protein kinase ABL1 (Homo sapiens) (UniProt P00519); conditions: Compound concentration 1000.0 nM
[18] = target: Serine/threonine-protein kinase D3 (Homo sapiens) (UniProt O94806); conditions: Compound concentration 1000.0 nM
[19] = target: Serine/threonine-protein kinase MRCK beta (Homo sapiens) (UniProt Q9Y5S2); conditions: Compound concentration 1000.0 nM
[20] = target: Death-associated protein kinase 2 (Homo sapiens) (UniProt Q9UIK4); conditions: Compound concentration 1000.0 nM
[21] = target: Casein kinase I isoform gamma-3 (Homo sapiens) (UniProt Q9Y6M4); conditions: Compound concentration 1000.0 nM
[22] = target: Casein kinase I isoform gamma-1 (Homo sapiens) (UniProt Q9HCP0); conditions: Compound concentration 1000.0 nM
[23] = target: Sodium-dependent noradrenaline transporter (Homo sapiens) (UniProt P23975); conditions: Compound concentration 10.0 uM
[24] = target: MAP kinase-activated protein kinase 5 (Homo sapiens) (UniProt Q8IW41); conditions: Compound concentration 1000.0 nM
[25] = tested on: Mast/stem cell growth factor receptor Kit (Homo sapiens), P10721 [V559D]; conditions: Compound concentration 1000.0 nM
[26] = target: Macrophage-stimulating protein receptor (Homo sapiens) (UniProt Q04912); conditions: Compound concentration 1000.0 nM
[27] = target: Serine/threonine-protein kinase NIM1 (Homo sapiens) (UniProt Q8IY84); conditions: Compound concentration 1000.0 nM
[28] = target: Mitogen-activated protein kinase 3 (Homo sapiens) (UniProt P27361); conditions: Compound concentration 1000.0 nM
[29] = target: Serine/threonine-protein kinase LATS2 (Homo sapiens) (UniProt Q9NRM7); conditions: Compound concentration 1000.0 nM
[30] = tested on: Hepatocyte growth factor receptor (Homo sapiens), P08581 [Y1235D]; conditions: Compound concentration 1000.0 nM
[31] = target: cGMP-dependent protein kinase 2 (Homo sapiens) (UniProt Q13237); conditions: Compound concentration 1000.0 nM
[32] = tested on: Phosphatidylinositol 4,5-bisphosphate 3-kinase catalytic subunit alpha isoform (Homo sapiens), P42336 [C420R]; conditions: Compound concentration 1000.0 nM
[33] = target: Tyrosine-protein kinase Srms (Homo sapiens) (UniProt Q9H3Y6); conditions: Compound concentration 1000.0 nM
[34] = target: Ephrin type-A receptor 2 (Homo sapiens) (UniProt P29317); conditions: Compound concentration 1000.0 nM
[35] = target: Mitogen-activated protein kinase 4 (Homo sapiens) (UniProt P31152); conditions: Compound concentration 1000.0 nM
[36] = target: Ephrin type-B receptor 1 (Homo sapiens) (UniProt P54762); conditions: Compound concentration 1000.0 nM
[37] = target: Tyrosine-protein kinase BTK (Homo sapiens) (UniProt Q06187); conditions: Compound concentration 1000.0 nM
[38] = target: Serine/threonine-protein kinase BRSK2 (Homo sapiens) (UniProt Q8IWQ3); conditions: Compound concentration 1000.0 nM
[39] = target: Serine/threonine-protein kinase PRP4 homolog (Homo sapiens) (UniProt Q13523); conditions: Compound concentration 1000.0 nM
[40] = target: NUAK family SNF1-like kinase 1 (Homo sapiens) (UniProt O60285); conditions: Compound concentration 1000.0 nM

Serine/threonine-protein kinase PRP4 homolog (Homo sapiens), sequence (Q13523 whole entry): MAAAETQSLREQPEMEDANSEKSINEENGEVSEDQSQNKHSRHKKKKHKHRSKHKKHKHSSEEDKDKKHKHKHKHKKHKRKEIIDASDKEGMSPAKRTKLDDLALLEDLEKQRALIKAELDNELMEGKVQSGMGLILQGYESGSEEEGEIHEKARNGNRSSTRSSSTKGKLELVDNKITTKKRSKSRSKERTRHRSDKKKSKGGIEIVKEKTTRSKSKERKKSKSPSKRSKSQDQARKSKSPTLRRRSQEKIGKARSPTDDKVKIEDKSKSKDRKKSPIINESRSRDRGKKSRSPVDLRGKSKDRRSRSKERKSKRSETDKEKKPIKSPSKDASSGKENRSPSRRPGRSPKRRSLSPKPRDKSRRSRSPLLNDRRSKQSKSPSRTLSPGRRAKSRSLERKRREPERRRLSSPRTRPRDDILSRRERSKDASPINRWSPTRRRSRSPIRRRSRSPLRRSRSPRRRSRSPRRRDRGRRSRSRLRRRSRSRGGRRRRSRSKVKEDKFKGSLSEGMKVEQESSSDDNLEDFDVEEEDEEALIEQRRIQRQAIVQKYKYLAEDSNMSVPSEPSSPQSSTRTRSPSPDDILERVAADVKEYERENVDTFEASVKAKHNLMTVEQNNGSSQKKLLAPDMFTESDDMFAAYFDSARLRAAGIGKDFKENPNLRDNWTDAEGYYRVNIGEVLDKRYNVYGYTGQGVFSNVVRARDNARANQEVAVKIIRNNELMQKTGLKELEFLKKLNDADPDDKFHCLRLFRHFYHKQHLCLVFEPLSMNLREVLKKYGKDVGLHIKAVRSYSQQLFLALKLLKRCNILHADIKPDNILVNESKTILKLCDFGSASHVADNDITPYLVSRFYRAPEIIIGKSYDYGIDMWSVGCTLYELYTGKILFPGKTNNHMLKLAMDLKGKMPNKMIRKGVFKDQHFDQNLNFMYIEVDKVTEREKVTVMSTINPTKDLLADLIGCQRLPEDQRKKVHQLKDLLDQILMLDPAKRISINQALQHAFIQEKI
Ephrin type-A receptor 2 (Homo sapiens), sequence (P29317 whole entry): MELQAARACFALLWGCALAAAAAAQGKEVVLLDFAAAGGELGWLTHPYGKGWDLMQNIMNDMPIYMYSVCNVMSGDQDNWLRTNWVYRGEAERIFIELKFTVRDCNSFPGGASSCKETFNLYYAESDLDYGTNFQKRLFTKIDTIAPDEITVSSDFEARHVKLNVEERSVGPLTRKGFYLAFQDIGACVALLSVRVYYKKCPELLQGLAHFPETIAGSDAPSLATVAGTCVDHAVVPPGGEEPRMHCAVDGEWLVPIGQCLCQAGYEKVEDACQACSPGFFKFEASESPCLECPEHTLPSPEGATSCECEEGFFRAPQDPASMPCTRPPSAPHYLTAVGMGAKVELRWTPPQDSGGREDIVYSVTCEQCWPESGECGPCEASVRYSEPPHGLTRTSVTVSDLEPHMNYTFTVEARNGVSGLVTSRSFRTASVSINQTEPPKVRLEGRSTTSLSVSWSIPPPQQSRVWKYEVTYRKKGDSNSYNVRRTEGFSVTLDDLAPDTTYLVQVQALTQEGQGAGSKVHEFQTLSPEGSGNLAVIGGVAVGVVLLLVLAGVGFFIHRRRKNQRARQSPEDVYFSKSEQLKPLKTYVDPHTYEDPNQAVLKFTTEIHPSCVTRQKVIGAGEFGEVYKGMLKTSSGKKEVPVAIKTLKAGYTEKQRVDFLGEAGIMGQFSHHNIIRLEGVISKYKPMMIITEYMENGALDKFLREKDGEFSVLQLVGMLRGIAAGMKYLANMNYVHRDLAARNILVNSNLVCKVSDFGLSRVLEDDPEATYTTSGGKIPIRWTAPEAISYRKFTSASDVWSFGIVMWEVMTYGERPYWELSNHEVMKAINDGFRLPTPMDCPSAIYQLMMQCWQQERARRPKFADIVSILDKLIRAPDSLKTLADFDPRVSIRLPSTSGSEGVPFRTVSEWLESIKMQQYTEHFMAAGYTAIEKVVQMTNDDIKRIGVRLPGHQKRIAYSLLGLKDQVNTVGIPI
Mitogen-activated protein kinase 3 (Homo sapiens), sequence (P27361 whole entry): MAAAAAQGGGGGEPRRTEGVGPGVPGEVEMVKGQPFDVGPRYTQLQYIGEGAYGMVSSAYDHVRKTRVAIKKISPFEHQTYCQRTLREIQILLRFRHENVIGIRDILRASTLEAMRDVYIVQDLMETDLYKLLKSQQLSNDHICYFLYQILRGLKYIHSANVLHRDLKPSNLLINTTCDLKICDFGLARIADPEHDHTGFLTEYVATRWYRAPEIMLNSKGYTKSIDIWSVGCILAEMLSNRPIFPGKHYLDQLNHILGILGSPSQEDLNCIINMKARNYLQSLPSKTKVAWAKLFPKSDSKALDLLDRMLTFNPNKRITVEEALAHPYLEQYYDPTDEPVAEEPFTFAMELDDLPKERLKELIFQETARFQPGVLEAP
Casein kinase I isoform gamma-3 (Homo sapiens), sequence (Q9Y6M4 whole entry, looked up, canonical isoform): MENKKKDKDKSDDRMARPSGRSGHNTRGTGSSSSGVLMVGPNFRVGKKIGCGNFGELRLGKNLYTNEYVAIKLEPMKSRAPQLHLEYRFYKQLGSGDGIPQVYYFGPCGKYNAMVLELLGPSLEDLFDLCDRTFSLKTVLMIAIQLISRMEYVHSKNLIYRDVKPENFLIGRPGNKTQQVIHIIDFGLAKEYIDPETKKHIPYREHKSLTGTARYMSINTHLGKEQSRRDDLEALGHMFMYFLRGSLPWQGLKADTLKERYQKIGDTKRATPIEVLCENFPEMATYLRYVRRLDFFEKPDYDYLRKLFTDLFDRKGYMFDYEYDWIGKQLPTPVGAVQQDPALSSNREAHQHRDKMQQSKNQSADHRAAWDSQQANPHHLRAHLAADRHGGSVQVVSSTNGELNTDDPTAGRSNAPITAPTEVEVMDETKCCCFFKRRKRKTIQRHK
cGMP-dependent protein kinase 2 (Homo sapiens), sequence (Q13237 whole entry, canonical isoform): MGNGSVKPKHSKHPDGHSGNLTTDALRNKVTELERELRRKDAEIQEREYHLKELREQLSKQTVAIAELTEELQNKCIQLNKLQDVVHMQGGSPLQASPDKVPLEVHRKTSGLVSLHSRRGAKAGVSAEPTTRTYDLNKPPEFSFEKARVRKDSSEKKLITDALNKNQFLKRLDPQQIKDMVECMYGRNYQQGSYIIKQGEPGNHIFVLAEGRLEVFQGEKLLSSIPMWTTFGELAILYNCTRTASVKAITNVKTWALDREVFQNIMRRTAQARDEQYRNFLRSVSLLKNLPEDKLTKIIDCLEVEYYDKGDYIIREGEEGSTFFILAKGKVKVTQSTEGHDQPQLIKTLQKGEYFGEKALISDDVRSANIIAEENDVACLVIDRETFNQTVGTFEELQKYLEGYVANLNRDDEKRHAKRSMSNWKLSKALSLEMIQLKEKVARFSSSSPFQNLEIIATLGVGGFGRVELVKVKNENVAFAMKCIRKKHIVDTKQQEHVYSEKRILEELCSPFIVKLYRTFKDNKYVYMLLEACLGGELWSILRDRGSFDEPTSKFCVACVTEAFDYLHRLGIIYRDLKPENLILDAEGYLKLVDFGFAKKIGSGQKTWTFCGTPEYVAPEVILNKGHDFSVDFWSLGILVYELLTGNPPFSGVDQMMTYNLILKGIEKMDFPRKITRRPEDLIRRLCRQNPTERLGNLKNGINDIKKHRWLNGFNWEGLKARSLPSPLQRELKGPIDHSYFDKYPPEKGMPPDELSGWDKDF
MAP kinase-activated protein kinase 5 (Homo sapiens), sequence (Q8IW41 whole entry): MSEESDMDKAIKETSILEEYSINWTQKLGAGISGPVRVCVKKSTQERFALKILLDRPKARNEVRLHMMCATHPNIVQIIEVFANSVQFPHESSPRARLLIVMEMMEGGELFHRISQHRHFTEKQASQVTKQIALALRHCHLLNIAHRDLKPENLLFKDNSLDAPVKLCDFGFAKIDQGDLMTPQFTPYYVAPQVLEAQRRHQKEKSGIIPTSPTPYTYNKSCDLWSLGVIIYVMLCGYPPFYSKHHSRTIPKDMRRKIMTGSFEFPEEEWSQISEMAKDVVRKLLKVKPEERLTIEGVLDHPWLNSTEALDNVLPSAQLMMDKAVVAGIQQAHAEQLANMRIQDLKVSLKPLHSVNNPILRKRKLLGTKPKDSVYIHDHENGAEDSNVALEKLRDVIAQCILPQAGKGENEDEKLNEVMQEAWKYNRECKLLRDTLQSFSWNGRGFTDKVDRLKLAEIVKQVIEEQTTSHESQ
Tyrosine-protein kinase BTK (Homo sapiens), sequence (Q06187 whole entry): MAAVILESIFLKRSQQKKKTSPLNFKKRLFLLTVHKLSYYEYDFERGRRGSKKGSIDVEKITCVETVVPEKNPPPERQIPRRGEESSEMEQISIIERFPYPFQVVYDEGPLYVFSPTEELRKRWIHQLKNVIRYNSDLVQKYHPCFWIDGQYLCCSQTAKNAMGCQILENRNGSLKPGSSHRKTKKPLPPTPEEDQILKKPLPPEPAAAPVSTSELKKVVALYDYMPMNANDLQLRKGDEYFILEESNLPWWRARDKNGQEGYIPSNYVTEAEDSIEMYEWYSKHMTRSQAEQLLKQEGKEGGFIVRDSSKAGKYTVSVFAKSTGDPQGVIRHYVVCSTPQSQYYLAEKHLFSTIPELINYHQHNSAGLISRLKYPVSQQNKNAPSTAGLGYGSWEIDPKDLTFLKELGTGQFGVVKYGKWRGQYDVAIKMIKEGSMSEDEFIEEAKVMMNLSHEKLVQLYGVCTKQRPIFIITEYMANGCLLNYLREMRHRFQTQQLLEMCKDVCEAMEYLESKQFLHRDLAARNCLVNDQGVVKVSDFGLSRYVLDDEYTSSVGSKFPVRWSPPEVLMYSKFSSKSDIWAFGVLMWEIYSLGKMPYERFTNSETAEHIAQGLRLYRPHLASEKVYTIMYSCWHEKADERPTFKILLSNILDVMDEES
Aurora kinase B (Homo sapiens), sequence (Q96GD4 whole entry): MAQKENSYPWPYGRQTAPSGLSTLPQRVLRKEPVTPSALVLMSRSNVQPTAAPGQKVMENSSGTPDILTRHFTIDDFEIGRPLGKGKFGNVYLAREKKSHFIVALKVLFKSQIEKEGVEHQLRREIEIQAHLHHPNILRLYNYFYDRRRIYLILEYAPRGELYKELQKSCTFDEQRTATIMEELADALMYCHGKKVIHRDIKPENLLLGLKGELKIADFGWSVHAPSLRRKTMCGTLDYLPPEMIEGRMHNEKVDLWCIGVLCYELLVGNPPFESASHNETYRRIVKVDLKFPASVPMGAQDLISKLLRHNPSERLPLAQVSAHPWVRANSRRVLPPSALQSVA

C[C@H](c1cccc(C#N)c1)n1cc(Cl)cc(C(N)=O)c1=N [(R)-9s]
inactive: residual activity [1] 92% | inhibition [2] 7.03% | residual activity [3] 67% | inhibition [4] 9.16% | residual activity [5] 63% | residual activity [6] 100% | residual activity [7] 98% | residual activity [8] 100% | residual activity [9] 79% | residual activity [10] 100% | residual activity [11] 87% | residual activity [12] 100% | residual activity [13] 100% | residual activity [14] 100% | residual activity [15] 91% | inhibition [16] 42.7% | residual activity [17] 77% | residual activity [18] 65% | residual activity [19] 85% | residual activity [20] 100% | residual activity [21] 100% | residual activity [22] 96% | inhibition [23] -7.01% | residual activity [24] 84% | residual activity [25] 83% | residual activity [26] 100% | residual activity [27] 84% | residual activity [28] 97% | residual activity [29] 84% | residual activity [30] 100% | residual activity [31] 97% | residual activity [32] 100% | residual activity [33] 75% | residual activity [34] 89% | residual activity [35] 82% | residual activity [36] 100% | residual activity [37] 91% | residual activity [38] 85% | residual activity [39] 93% | residual activity [40] 57%

C[C@@H](c1cccc(C#N)c1)n1cc(Cl)cc(C(N)=O)c1=N [(S)-9s]
inactive: residual activity [1] 100% | inhibition [2] -3.38% | residual activity [3] 72% | inhibition [4] -2.19% | residual activity [5] 86% | residual activity [6] 93% | residual activity [7] 100% | residual activity [8] 90% | residual activity [9] 97% | residual activity [10] 100% | residual activity [11] 100% | residual activity [12] 98% | residual activity [13] 100% | residual activity [14] 100% | residual activity [15] 100% | inhibition [16] 3.93% | residual activity [17] 73% | residual activity [18] 100% | residual activity [19] 100% | residual activity [20] 100% | residual activity [21] 100% | residual activity [22] 82% | inhibition [23] -4.73% | residual activity [24] 93% | residual activity [25] 93% | residual activity [26] 100% | residual activity [27] 97% | residual activity [28] 100% | residual activity [29] 80% | residual activity [30] 100% | residual activity [31] 100% | residual activity [32] 100% | residual activity [33] 83% | residual activity [34] 88% | residual activity [35] 90% | residual activity [36] 94% | residual activity [37] 98% | residual activity [38] 95% | residual activity [39] 100% | residual activity [40] 89%
